From the supplement of paper PMC11451515

Columns and labels:
Settings in all cases: 48 h
NOMO1 [1] = test: cell viability relative to DMSO control; higher = less cytotoxic
Outline: (§1)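 Viability, reported as a per-plate percentage of DMSO wells with cell-free wells as background, came from CellTiter-Glo One luminescence. Reading took place after 48 h at 37°C. Before that, NOMO1 or SEM (500 cells/well) or P12-Ichikawa (1000 cells/well) leukemia cells, adapted for at least four passages in each medium, were seeded in 1536-well plates (5 μl) and pin-dosed with library compounds in DMSO, 47 μM to 0.79 nM over 11 threefold points.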

P12-Ichikawa [2] = test: as above
Outline: as §1

SEM cells [3] = test: as above
Outline: as §1

NOMO1 [4] = test: AUC of viability dose-response curve (% viability x log10 dose units); higher = less sensitive
Outline: (§2)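 Seeding of medium-adapted leukemia cells was at 500 or 1000 cells/well in 1536-well plates, followed by 48 h at 37°C with library compounds in DMSO at 11 threefold doses from 47 μM to 0.79 nM. CellTiter-Glo One luminescence was normalised per plate to DMSO and cell-free wells and fitted as a four-parameter log-logistic function of log10 dose. Area under the curve was integrated by trapezoidal rule, with curves exceeding full viability scaled and curves failing quality control removed.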

P12-Ichikawa [5] = test: as above
Outline: as §2

SEM cells [6] = test: as above
Outline: as §2

COC1=CC=C(C=C1)C2CC(=N/N2C3=CC=C(C=C3)[S+](N)([O-])=O)\C4=CC=CC=C4 (stereo not drawn)
cell viability [%]
Settings | NOMO1 [1] | P12-Ichikawa [2] | SEM cells [3]
HPLM + 10% dialyzed FBS, 0.000781 µM | 82.7 | 95.3 | 83.3
HPLM + 10% dialyzed FBS, 0.00234 µM | 91.2 | 91.6 | 91.2
HPLM + 10% dialyzed FBS, 0.00702 µM | 98.8 | 102 | 91.4
HPLM + 10% dialyzed FBS, 0.0211 µM | 92.9 | 102 | 104
HPLM + 10% dialyzed FBS, 0.0632 µM | 97.4 | 99.5 | 110
HPLM + 10% dialyzed FBS, 0.19 µM | 97.1 | 108 | 69.2
HPLM + 10% dialyzed FBS, 0.569 µM | 94.9 | 108 | 86.3
HPLM + 10% dialyzed FBS, 1.71 µM | 56.1 | 83.8 | 51.3
HPLM + 10% dialyzed FBS, 5.12 µM | 24.4 | 63.1 | 30.9
HPLM + 10% dialyzed FBS, 15.4 µM | 3.71 | 4.53 | 4.3
HPLM + 10% dialyzed FBS, 46.1 µM | 1.86 | 2.18 | 2.47
RPMI 5 mM glucose + 10% FBS, 0.000781 µM | 85.9 | 101 | 104
RPMI 5 mM glucose + 10% FBS, 0.00234 µM | 85.1 | 90 | 86.1
RPMI 5 mM glucose + 10% FBS, 0.00702 µM | 92.5 | 94 | 107
RPMI 5 mM glucose + 10% FBS, 0.0211 µM | 102 | 94.4 | 104
RPMI 5 mM glucose + 10% FBS, 0.0632 µM | 102 | 106 | 107
RPMI 5 mM glucose + 10% FBS, 0.19 µM | 98.3 | 89.6 | 43.4
RPMI 5 mM glucose + 10% FBS, 0.569 µM | 94.6 | 99.8 | 72.9
RPMI 5 mM glucose + 10% FBS, 1.71 µM | 89.5 | 67.8 | 37.8
RPMI 5 mM glucose + 10% FBS, 5.12 µM | 35.2 | 42 | 14.8
RPMI 5 mM glucose + 10% FBS, 15.4 µM | 4.7 | 3.73 | 2.74
RPMI 5 mM glucose + 10% FBS, 46.1 µM | 2.12 | 1.01 | 1.62
RPMI 5 mM glucose + 10% dialyzed FBS, 0.000781 µM | 82.7 | 85.6 | 87.3
RPMI 5 mM glucose + 10% dialyzed FBS, 0.00234 µM | 93.8 | 96.2 | 74
RPMI 5 mM glucose + 10% dialyzed FBS, 0.00702 µM | 85.6 | 96.6 | 84.3
RPMI 5 mM glucose + 10% dialyzed FBS, 0.0211 µM | 103 | 100 | 95.4
RPMI 5 mM glucose + 10% dialyzed FBS, 0.0632 µM | 98 | 95.9 | 100
RPMI 5 mM glucose + 10% dialyzed FBS, 0.19 µM | 86.2 | 85.9 | 60.1
RPMI 5 mM glucose + 10% dialyzed FBS, 0.569 µM | 93.3 | 91.4 | 63.3
RPMI 5 mM glucose + 10% dialyzed FBS, 1.71 µM | 59 | 65.8 | 45.9
RPMI 5 mM glucose + 10% dialyzed FBS, 5.12 µM | 43.3 | 35.8 | 19
RPMI 5 mM glucose + 10% dialyzed FBS, 15.4 µM | 4.24 | 4.09 | 2.63
RPMI 5 mM glucose + 10% dialyzed FBS, 46.1 µM | 1.96 | 1.97 | 2.05

AUC of viability dose-response curve
Settings | NOMO1 [4] | P12-Ichikawa [5] | SEM cells [6]
HPLM + 10% dialyzed FBS | 330 | 387 | 323
RPMI 5 mM glucose + 10% FBS | 355 | 354 | 293
RPMI 5 mM glucose + 10% dialyzed FBS | 337 | 340 | 282
